Test in all cases: In vitro antibacterial activity, broth microdilution MIC90
Holding throughout (format): cell-based

Test [1] has as its system Enterococcus faecalis. The method, boiled down: (§1)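 Broth microdilution per CLSI M7-A5 guidelines, run against a 12-strain panel of staphylococci, enterococci and Moraxella catarrhalis. Final test compound concentrations spanned 0.063 to 128 μg/mL with 2.5% (V/V) DMSO as excipient; linezolid served as control.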
The subject of test [2] is Methicillin Resistant Staphylococcus epidermidis. The method, boiled down:
as §1

The subject of test [3] is Linezolid and Vancomycin Resistant Enterococcus faecium (strain 10). The procedure, abridged: as §1
Test [4] relates to Staphylococcus aureus. The procedure, abridged: as §1
Test [5] relates to Vancomycin Resistant Enterococcus faecium. The procedure, abridged:
as §1

The test system of test [6] is Methicillin Resistant Staphylococcus aureus. The method, boiled down:
as §1

Test [7] deals with Linezolid and Vancomycin Resistant Enterococcus faecalis. The method, boiled down:
as §1

Test [8] relates to Enterococcus faecium. The procedure, abridged:
as §1

Test [9] concerns Linezolid and Vancomycin Resistant Enterococcus faecium (strain 11). The procedure, abridged: as §1
Test [10] has as its system Staphylococcus epidermidis. The method, boiled down: as §1
Test [11] relates to Vancomycin Resistant Enterococcus faecalis. The procedure, abridged: as §1
Test [12] has as its system Moraxella catarrhalis. The procedure, abridged: as §1
Setting [13] is: Enterococcus faecalis, strain 5, E. faecalis, read-out: MIC90.
Setting [14] is: Staphylococcus epidermidis, strain 4, S. epidermidis MR, read-out: MIC90.
Setting [15] is: Enterococcus faecium, strain 10, E. faecium VanA LR, read-out: MIC90.
Setting [16] is: Staphylococcus aureus, strain 1, S. aureus, read-out: MIC90.
[17] abbreviates: Enterococcus faecium, strain 9, E. faecium VanA, read-out: MIC90.
[18] abbreviates: Staphylococcus aureus, strain 2, S. aureus MR, read-out: MIC90.
The mark [19] stands for this setting: Enterococcus faecalis, strain 7, E. faecalis VanA LR, read-out: MIC90.
Setting [20] is: Enterococcus faecium, strain 8, E. faecium, read-out: MIC90.
The mark [21] stands for this setting: Enterococcus faecium, strain 11, E. faecium VanA LR, read-out: MIC90.
Setting [22] is: Staphylococcus epidermidis, strain 3, S. epidermidis, read-out: MIC90.
The mark [23] stands for this setting: Enterococcus faecalis, strain 6, E. faecalis VanA, read-out: MIC90.
Setting [24] is: Moraxella catarrhalis, strain 12, M. catarrhalis, read-out: MIC90.

Converted amounts (≈) assume the structure as drawn. Where two headings read alike, the source gives them in different places.

For the molecule `CN1CCON=C1c1ccc(-c2ccc(N3C[C@H](CO)OC3=O)cc2F)cn1` [Compound 71], the MIC90 (in general, an inhibitory concentration at the 90% level, which refers to growth in some studies and to a panel of isolates in others) in [1] (setting [13]) was 4 µg/mL (≈ 10.4 µM); in test [2] (setting [14]), 4 µg/mL (≈ 10.4 µM); in [3] (setting [15]) it was 8 µg/mL (≈ 20.7 µM); in test [4] (setting [16]), 2 µg/mL (≈ 5.18 µM); in test [5] (setting [17]) it was 2 µg/mL (≈ 5.18 µM); in test [6] (setting [18]), 4 µg/mL (≈ 10.4 µM). Besides, the MIC90 in test [7] (setting [19]) came out at 16 µg/mL (≈ 41.4 µM); in [8] (setting [20]), 2 µg/mL (≈ 5.18 µM); in test [9] (setting [21]) it was 16 µg/mL (≈ 41.4 µM); in test [10] (setting [22]), 2 µg/mL (≈ 5.18 µM); in [11] (setting [23]), 2 µg/mL (≈ 5.18 µM); in test [12] (setting [24]) it was 8 µg/mL (≈ 20.7 µM).

For the molecule `CC(=O)NC[C@H]1CN(c2ccc(-c3ccc(N4CCN(C(=O)CO)C=N4)nc3)c(F)c2)C(=O)O1` [Compound 54], the MIC90 in test [1] (Enterococcus faecalis) amounted to 0.063 µg/mL (≈ 0.134 µM); in test [2] (Staphylococcus epidermidis), 0.5 µg/mL (≈ 1.06 µM); in test [3] (Enterococcus faecium), 0.5 µg/mL (≈ 1.06 µM); in test [4] (Staphylococcus aureus), 0.25 µg/mL (≈ 0.531 µM); in test [5] (Enterococcus faecium), 0.063 µg/mL (≈ 0.134 µM); in [6] (Staphylococcus aureus), 0.5 µg/mL (≈ 1.06 µM). Further, the MIC90 stood at 0.5 µg/mL (≈ 1.06 µM) in [7] (Enterococcus faecalis); 0.25 µg/mL (≈ 0.531 µM) in [8] (Enterococcus faecium); 0.5 µg/mL (≈ 1.06 µM) in test [9] (Enterococcus faecium); 0.125 µg/mL (≈ 0.266 µM) in test [10] (Staphylococcus epidermidis); 0.063 µg/mL (≈ 0.134 µM) in test [11] (Enterococcus faecalis); 1 µg/mL (≈ 2.13 µM) in [12] (Moraxella catarrhalis). Besides, in test [7] (Enterococcus faecalis and Enterococcus faecium which are resistant to linezolid), the “antibacterial activity against linezolid-resistant bacteria (in words)” value is “very high antibacterial activity”.

In the case of `CC(=O)NC[C@H]1CN(c2ccc(-c3ccc(N4C=NN(C(=O)C(O)CO)CC4)nc3)c(F)c2)C(=O)O1` (stereo partly shown) [Compound 21], the MIC90 in test [1] (setting [13]) is 1 µg/mL (≈ 2 µM); in [2] (setting [14]) it was 1 µg/mL (≈ 2 µM); in test [3] (setting [15]) it was 2 µg/mL (≈ 4 µM); in test [4] (setting [16]), 0.25 µg/mL (≈ 0.5 µM); in test [5] (setting [17]), 0.5 µg/mL (≈ 0.999 µM); in test [6] (setting [18]), 1 µg/mL (≈ 2 µM). Also, the MIC90 in [7] (setting [19]) came out at 2 µg/mL (≈ 4 µM); in [8] (setting [20]), 0.5 µg/mL (≈ 0.999 µM); in test [9] (setting [21]) it was 4 µg/mL (≈ 7.99 µM); in test [10] (setting [22]), 0.5 µg/mL (≈ 0.999 µM); in [11] (setting [23]), 1 µg/mL (≈ 2 µM); in [12] (setting [24]) it was 4 µg/mL (≈ 7.99 µM).

Consider `COC(=O)NC[C@H]1CN(c2ccc(-c3ccc(N4C=NN(C)CC4)nc3)c(F)c2)C(=O)O1` [Compound 24], for which the MIC90 was 1 µg/mL (≈ 2.26 µM) in test [1] (Enterococcus faecalis); 2 µg/mL (≈ 4.52 µM) in test [2] (Staphylococcus epidermidis); 4 µg/mL (≈ 9.04 µM) in [3] (Enterococcus faecium); 0.5 µg/mL (≈ 1.13 µM) in test [4] (Staphylococcus aureus); 0.5 µg/mL (≈ 1.13 µM) in test [5] (Enterococcus faecium); 1 µg/mL (≈ 2.26 µM) in test [6] (Staphylococcus aureus). Further, the MIC90 in [7] (Enterococcus faecalis) worked out at 4 µg/mL (≈ 9.04 µM); in test [8] (Enterococcus faecium) it was 0.5 µg/mL (≈ 1.13 µM); in test [9] (Enterococcus faecium), 8 µg/mL (≈ 18.1 µM); in [10] (Staphylococcus epidermidis) it was 0.5 µg/mL (≈ 1.13 µM); in test [11] (Enterococcus faecalis) it was 1 µg/mL (≈ 2.26 µM); in [12] (Moraxella catarrhalis) it was 4 µg/mL (≈ 9.04 µM).

As to `COC(=O)NC[C@H]1CN(c2ccc(-c3ccc(N4C=NN(C(N)=O)CC4)nc3)c(F)c2)C(=O)O1` [Compound 26], the MIC90 in [1] (Enterococcus faecalis) came out at 0.5 µg/mL (≈ 1.06 µM); in test [2] (Staphylococcus epidermidis), 1 µg/mL (≈ 2.12 µM); in [3] (Enterococcus faecium) it was 4 µg/mL (≈ 8.48 µM); in test [4] (Staphylococcus aureus) it was 0.25 µg/mL (≈ 0.53 µM); in [5] (Enterococcus faecium), 0.5 µg/mL (≈ 1.06 µM); in test [6] (Staphylococcus aureus) it was 1 µg/mL (≈ 2.12 µM). The MIC90 in test [7] (Enterococcus faecalis) amounted to 4 µg/mL (≈ 8.48 µM); in test [8] (Enterococcus faecium) it was 0.25 µg/mL (≈ 0.53 µM); in test [9] (Enterococcus faecium), 2 µg/mL (≈ 4.24 µM); in test [10] (Staphylococcus epidermidis), 0.5 µg/mL (≈ 1.06 µM); in test [11] (Enterococcus faecalis) it was 0.5 µg/mL (≈ 1.06 µM); in test [12] (Moraxella catarrhalis), 4 µg/mL (≈ 8.48 µM).

With `CN1CCN(c2ccc(-c3ccc(N4C[C@H](COc5ccon5)OC4=O)cc3F)cn2)C=N1` [Compound 45], the MIC90 in [1] (strain 5, E. faecalis) was 2 µg/mL (≈ 4.42 µM); in test [2] (strain 4, S. epidermidis MR), 4 µg/mL (≈ 8.84 µM); in [3] (strain 10, E. faecium VanA LR), above 128 µg/mL; in test [4] (strain 1, S. aureus), 0.5 µg/mL (≈ 1.11 µM); in test [5] (strain 9, E. faecium VanA), 2 µg/mL (≈ 4.42 µM); in [6] (strain 2, S. aureus MR), 1 µg/mL (≈ 2.21 µM). Moreover, the MIC90 is above 128 µg/mL in test [7] (strain 7, E. faecalis VanA LR); 0.5 µg/mL (≈ 1.11 µM) in test [8] (strain 8, E. faecium); above 128 µg/mL in [9] (strain 11, E. faecium VanA LR); 1 µg/mL (≈ 2.21 µM) in test [10] (strain 3, S. epidermidis); 4 µg/mL (≈ 8.84 µM) in test [11] (strain 6, E. faecalis VanA); above 128 µg/mL in test [12] (strain 12, M. catarrhalis).

Turning to `Cl.NCC(=O)N1CCN(c2ccc(-c3ccc(N4C[C@H](COc5ccon5)OC4=O)cc3F)cn2)C=N1` [Compound 48], the MIC90 in [1] (strain 5, E. faecalis) came to 4 µg/mL; in test [2] (strain 4, S. epidermidis MR), 4 µg/mL; in test [3] (strain 10, E. faecium VanA LR), 16 µg/mL; in test [4] (strain 1, S. aureus) it was 0.5 µg/mL; in test [5] (strain 9, E. faecium VanA), 2 µg/mL; in test [6] (strain 2, S. aureus MR), 1 µg/mL. Also, the MIC90 in [7] (strain 7, E. faecalis VanA LR) was 32 µg/mL; in test [8] (strain 8, E. faecium) it was 1 µg/mL; in [9] (strain 11, E. faecium VanA LR), 32 µg/mL; in test [10] (strain 3, S. epidermidis), 1 µg/mL; in test [11] (strain 6, E. faecalis VanA), 4 µg/mL; in [12] (strain 12, M. catarrhalis), 32 µg/mL.

The values are drawn from US8846669B2, “Oxazolidinone derivative and medical composition containing same” (Legochem Biosciences, Inc., priority 2011, dated 2014).
